Data set [1] in a line: Emission spectrum and fluorescence intensity of NIR dyes. Particulars: excitation at 650 nm. Format: physicochemical. The procedure: FIG. 1 depicts the emission spectrum for NIR Dyes (ICG, IR-783, and 783-S-Ph-COOH) following excitation at 650 nm (A) and 690 nm (B).
Fluorescence intensity of the NIR dyes was evaluated as well, following excitation at 650 nm (FIG. 2A).

The next data set relates to T1, P-(GGFLGK-IR783)2.5%.
T1 sequence: GGFLGK

In a further data set the test system is T2, P-(GGFLGK-IR783)5%.
T2 sequence: GGFLGK

In the next data set the test system is T3, P-(GGFLGK-IR783)7.5%.
T3 sequence: GGFLGK

Data set [2] can be described thus: Effect of dye loading on fluorescence intensity and quenching of HPMA copolymer-IR783 conjugates. Format: physicochemical. Particulars: dissolved in DDW; Ex: 690 nm, Em: 820 nm. The procedure:
HPMA conjugates of various IR-783-S-Ph-COOH loadings were dissolved in DDW and their fluorescence intensity (Ex: 690 nm, Em: 820 nm). […] These observations confirm the decrease in fluorescence intensity with increasing the loading of IR-783-S-Ph-COOH on p-HPMA copolymer due to the quenching of fluorescent signal.
The effect of NIR813 loading on p-HPMA-NIR813 quenching efficiency is shown in FIG. 3 and a complete quenching was achieved when the loading level of IR-783 on P—HPMA-IR-783 was 15%.

A further data set deals with Cathepsin B (Homo sapiens, UniProt P07858). Briefly: Cathepsin B degradation of the linker (fluorescence activation). It counts as biochemical. Particulars: after 22 h of incubation; Cathepsin B 1.5 U, sodium acetate buffer pH 5.5. The procedure:
0.5 mg polymer was dissolved in 1 ml sodium acetate buffer (pH=5.5). Cathepsin B (1.5 U) was added to the solution and incubate for 24 hours at 370 C. The fluorescence intensity (excitation 650 nm & 690 nm, emission range 820 nm) was measured every 30 minutes.
The effects of IR-783-S-Ph-COOH loading on CB mediated fluorescence activation was tested.

Data set [3] concerns SW-480 cells. The experiment in a line: Imaging of orthotopically implanted SW-480 colon tumors in nu/nu athymic mice. It counts as in vivo. Particulars: for time post injection of accumulation in tumor area: 2 mg i.v., orthotopic SW-480 tumors. How it is done: Three types of mouse models were employed to test the ability of the probes to detect solid tumors in the GI tract.
Nu/nu athymic mice were injected orthotopically into the descending colon of female with SW-480 cells. After tumors reached ˜0.5 cm in diameter, mice were injected i.v. with 2 mg of IR-783 bearing polymeric probe. The results in the orthotopically implanted tumors confirm the accumulation of both P-(GGFLGK (SEQ ID NO: 11)-IR783)2.5% and P-(GGFLGK (SEQ ID NO: 11)-IR783)7.5% polymeric probes in tumor area about 4 h post injection and retention at the tumor site for at least 48 h.
Biodistribution analysis indicated the presence of the probe in the tumor, kidneys, galbladder and the urine. The T/B ratio following whole body imaging (WBI) was 2.4 in mice treated with P-(GGFLGK (SEQ ID NO: 11)-IR783)7.5%, 4 h post injection (FIG. 6). […] The calculated ratio of the average fluorescence efficiency between colon and tumor tissue was ˜9 (FIG. 7).

Data set [4] relates to SW-480 cells. The experiment in a line: Imaging of rectally implanted SW-480 tumors in female mice. Format: in vivo. The procedure: The ability of the probe to detect solid tumors in female mice bearing rectally tumors injected with SW-480 cells was tested. The mice were injected with 0.2 mg/200 μl of P-(GGFLGK (SEQ ID NO: 11)-IR783)2.5% and the whole body was imaged 4 and 24 h post injection. […] However images from excised organs taken 24 h post injection indicated a 4-fold increase in the average fluorescence efficiency between colon and tumor tissue (FIG. 8A).

Another data set concerns HT-29 cells. The experiment in a line: Imaging of rectal HT-29 tumors in female mice. It counts as in vivo. The procedure:
The ability of the probe to detect solid tumors in female mice bearing rectal tumors introduced via injection with HT-29 cells was also evaluated. After tumors reached ˜0.5 cm in diameter, mice were injected i.v. with 2 mg of IR-783 bearing polymeric probe. Mice were kept in metabolic cages throughout the experiment (48 h). The mice were injected with 1 mg/200 μl of P-(GGFLGK (SEQ ID NO: 11)-IR783)7.5% (CB cleavable linker) and the whole body was imaged 4, 24 and 48 h post injection. […] In images from excised organs taken 24 h post injection indicated only 1.5-fold increase in the average fluorescence efficiency between colon and tumor tissue (T/C) (1.64 and 1.3-fold of increase, FIG. 9b and FIG. 10b, respectively), due to the high background fluorescence along the gastrointestinal tract (stomach, colon and […]), even though treated in metabolic cages. Once the tumor to heart ratio (T/H) was measured, an increased of about 8-10-fold was calculated. When mice were injected with the polymeric probe with non-cleavable linker P-(AP-IR783)7.5%, and the whole body was imaged 4 post injection, the T/B ratio was 1.3.

Several values for one entry are separate records, joined by “and”; a condition that tells them apart may be missing. Equal entries are not always repeated. Ends that are not written are not given here.

Consider `CC1(C)C(/C=C/C=C/C=C/C=C2\N(CCCCS(=O)(=O)O)c3ccc4ccccc4c3C2(C)C)=[N+](CCCCS(=O)(=O)[O-])c2ccc3ccccc3c21` [ICG, indocyanine green], for which the maximal emission wavelength in data set [1] is reported as 810 nm.

Molecule `CC1(C)C(=CC=C2CCCC(C=CC3=[N+](CCCCS(=O)(=O)O)c4ccccc4C3(C)C)=C2Cl)N(CCCCS(=O)(=O)O)c2ccccc21.[OH-]` [IR-783, 2-[2-[2-Chloro-3-[2-[1,3-dihydro-3,3-dimethyl-1-(4-sulfobutyl)-2H-indol-2-ylidene]-ethylidene]-1-cyclohexen-1-yl]-ethenyl]-3,3-dimethyl-1-(4-sulfobutyl)-3H-indolium hydroxide] yielded a maximal emission wavelength in [1] of 800 nm.

In data set [1], `CC1(C)C(/C=C/C2=C(Sc3ccc(C(=O)O)cc3)C(=C/C=C3\N(CCCCS(=O)(=O)O)c4ccccc4C3(C)C)/CCC2)=[N+](CCCCS(=O)(=O)[O-])c2ccccc21` [IR-783-S-Ph-COOH] registered a maximal emission wavelength of 830 nm.

For the molecule Cathepsin B, in the data set with P-(GGFLGK-IR783)2.5%, the “increase in signal intensity over time with Cathepsin B” value was “only 2-fold increase in signal intensity over time”. In addition, the “increase in the (fluorescence) intensity after 22 h of incubation with Cathepsin B” value is listed as 3.6-fold in the data set on P-(GGFLGK-IR783)5% and 4.9-fold with P-(GGFLGK-IR783)7.5%.

Take “P-(GGFLGK-IR783)2.5%: HPMA copolymer bearing IR-783-S-Ph-COOH via degradable GGFLGK linker, 2.5 mol % dye loading (not fully specified (N-terminus); also: IR-783-S-Ph-COOH dye attached, site not given here)”: the “fluorescence intensity at λ=820 nm compared with copolymers of other dye loading” value in data set [2] is recorded as “highest fluorescence intensity”. In addition, the “increase in fluorescence intensity following CB degradation” value with Cathepsin B is reported as 2 fold. In addition, the “time post injection of accumulation in tumor area” value with SW-480 cells [3] was “about 4 h”. Moreover, the “calculated ratio of the average fluorescence efficiency between colon and tumor tissue” value in the data set with SW-480 cells [3] (ex vivo, 48 h post injection, FIG. 7) is approximately 9. In addition, the “Biodistribution analysis: accumulation” value in the data set with SW-480 cells [3] (mice sacrificed 48 h post injection) is “significant accumulation in the tumor, kidneys and gallbladder”. Also, the “T/B ratio in whole body imaging, 4 versus 24 h post injection” value in the data set on SW-480 cells [4] (0.2 mg/200 μl) is recorded as “not significantly different”. Besides, the “increase in the average fluorescence efficiency between colon and tumor tissue” value in the data set with SW-480 cells [4] (excised organs 24 h post injection, 0.2 mg/200 μl, FIG. 8A) came out at 4 fold.

For “P-(GGFLGK-IR783)5%: HPMA copolymer bearing IR-783-S-Ph-COOH via degradable GGFLGK linker, 5% dye loading (not fully specified; also: conjugated to HPMA copolymer via GGFLGK linker)”, the “increase in fluorescence intensity following CB degradation” value in the data set with Cathepsin B turned out to be 3.6 fold.

Take “P-(GGFLGK-IR783)7.5%: HPMA copolymer bearing IR-783-S-Ph-COOH via degradable (CB cleavable) GGFLGK linker, 7.5% dye loading (not fully specified; also: conjugated to HPMA copolymer via GGFLGK linker)”: in the data set with Cathepsin B, the “increase in fluorescence intensity following CB degradation” value turned out to be 4.9 fold. For the same molecule, in the data set on SW-480 cells [3], the “time post injection of accumulation in tumor area” value is on record as “about 4 h”. In the data set on SW-480 cells [3] (4 h post injection, 2 mg, FIG. 6), the “T/B ratio following whole body imaging (WBI)” value stood at 2.4. Also, the “ratio in the average fluorescence efficiency between colon and tumor tissue” value in the data set with SW-480 cells [4] (excised tumor harvested 48 h post injection, FIG. 8b) was approximately 4. The “tumor accumulation with time” value in the data set with SW-480 cells [4] (whole body imaging) was “slight increase”. In addition, the “T/B ratio in whole body imaging, 4 versus 24 h post injection” value with HT-29 cells (1 mg/200 μl, HT-29 rectal model) is recorded as “not significantly different”. Besides, the “increase in the average fluorescence efficiency between colon and tumor tissue (T/C)” value with HT-29 cells (excised organs taken 24 h post injection, 1 mg/200 μl) was determined as 1.5 fold. Besides, in the data set on HT-29 cells (excised organs, 1 mg/200 μl), the “tumor to heart ratio (T/H)” value was 8-10 fold. In addition, the “increase in the average fluorescence efficiency between colon and tumor tissue (T/C), single figures” value in the data set with HT-29 cells (excised organs, FIG. 9b and FIG. 10b, respectively, listed as P-(GGFLGK (SEQ ID NO: 11)-IR783)7.5%) was 1.64 fold and 1.3 fold.

(Values after patent publication US20130142734A1, “TARGETED DELIVERY SYSTEMS FOR DIAGNOSTIC APPLICATIONS” (priority 2010, published 2013).)
